For the experiment, the target named is T1, serotonin transporter (Rattus norvegicus, UniProt P31652).
T1 construct: from tissue; host or cells: frontal cortex membranes of male Sprague-Dawley rats
As to the kind of experiment: Displacement of specifically bound 3H-paroxetine from rat cortical membranes (affinity for the serotonin transporter). It counts as binding. The method, then: The affinity of drugs for the serotonin transporter was determined by assessing the ability of agents to displace specifically bound 3H-paroxetine binding from rat cortical membranes. […] Briefly, frontal cortical membranes prepared from male S.D. rats were incubated with ^3H-paroxetine (0.1 nM) for 60 min at 25°C. All tubes also contained either vehicle, test compound (one to eight concentrations), or a saturating concentration of fluoxetine (10 µM) to define […]. All reactions are terminated by the addition of ice cold Tris buffer followed by rapid filtration using a Tom Tech filtration device to separate bound from free ^3H-paroxetine. […] Nonspecific binding was determined using fluoxetine.

Setting [1] is: compounds of formula 1, frontal cortical membranes from male S.D. rats, 3H-paroxetine 0.1 nM, 60 min at 25°C, Ki from IC50 by Cheng and Prusoff, read-out: Inhibition of [3H]-Paroxetine binding Ki.

Where two headings read alike, the source gives them in different places.

T1 sequence (P31652 whole entry): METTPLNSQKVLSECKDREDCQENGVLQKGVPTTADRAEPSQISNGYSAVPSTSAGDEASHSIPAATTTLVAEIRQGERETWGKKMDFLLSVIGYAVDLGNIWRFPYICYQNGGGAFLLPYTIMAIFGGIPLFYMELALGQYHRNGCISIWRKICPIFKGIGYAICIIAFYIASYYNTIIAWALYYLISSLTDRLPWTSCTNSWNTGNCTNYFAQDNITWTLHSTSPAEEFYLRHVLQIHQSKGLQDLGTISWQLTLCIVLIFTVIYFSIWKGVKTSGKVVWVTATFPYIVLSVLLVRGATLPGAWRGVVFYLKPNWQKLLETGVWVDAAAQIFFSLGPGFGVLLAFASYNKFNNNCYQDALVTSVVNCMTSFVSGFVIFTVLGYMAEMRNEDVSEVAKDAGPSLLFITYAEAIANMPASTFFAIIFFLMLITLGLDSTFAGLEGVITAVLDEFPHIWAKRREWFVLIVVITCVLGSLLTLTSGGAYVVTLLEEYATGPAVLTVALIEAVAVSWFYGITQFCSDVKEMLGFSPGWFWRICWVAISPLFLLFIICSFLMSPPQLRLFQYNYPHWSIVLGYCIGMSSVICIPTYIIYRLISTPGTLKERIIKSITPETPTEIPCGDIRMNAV

Consider `COc1ccccc1N1CCN(CCCN2CCC(Cc3c[nH]c4ccc(F)cc34)CC2)CC1` [Example 3, 5-Fluoro-3-(1-{3-[4-(2-methoxyphenyl)piperazin-1-yl]propyl}piperidin-4-ylmethyl)-1H-indole], for which the inhibition constant (Ki) under setting [1] stood at 1.2 nM.
Molecule `COc1ccccc1N1CCN(CCN2CC=C(c3c[nH]c4ccc(F)cc34)CC2)CC1` [Example 7, 5-Fluoro-3-(1-{2-[4-(2-methoxyphenyl)piperazin-1-yl]ethyl} 1,2,3,6-tetrahydropyridin-4-yl)-1H-indole] gave a Ki of 19 nM.
With `COc1ccccc1N1CCN(CCN2CCC(Cc3c[nH]c4ccc(F)cc34)CC2)CC1` [Example 1, 5-Fluoro-3-(1-{2-[4-(2-methoxyphenyl)piperazin-1-yl]ethyl}piperidin-4-ylmethyl)-1H-indole], under setting [1], the Ki came to 4.8 nM.
Consider `COc1ccccc1N1CCN(CCN2CC=C(c3c[nH]c4ccccc34)CC2)CC1` [Example 6, 3-(1-{2-[4-(2-methoxyphenyl)piperazin-1-yl]ethyl} 1,2,3,6-tetrahydropyridin-4-yl)-1H-indole], for which the Ki was found to be 10 nM.

One may read the Ki as the equilibrium dissociation constant of an inhibitor or competing ligand from its target.
